Laboratory results: the supplement of paper PMC10307832

How the values were obtained:
Assay in all cases: relative viability (nuclei count vs DMSO), 5 days (fraction); higher = more cells survive
[1] = compound: CCCS(=O)(=O)Nc1ccc(F)c(C(=O)c2c[nH]c3ncc(-c4ccc(Cl)cc4)cc23)c1F [Vemurafenib] + CC(=O)Nc1cccc(-n2c(=O)n(C3CC3)c(=O)c3c(Nc4ccc(I)cc4F)n(C)c(=O)c(C)c32)c1 [Trametinib] (partner 0.02 µM)
Procedure, shortened: (§1)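 Dosing by pin tool came one day after lung cancer cell lines were seeded in 1536-well plates, using either one drug or a fixed anchor-drug dose plus five library-drug doses (not always all listed) in √10 steps. After 5 days, nuclei were counted on 4× images. Relative viability is treated-well nuclei count divided by vehicle-well nuclei count, and values are medians of duplicate plates.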

[2] = compound: CCCS(=O)(=O)Nc1ccc(F)c(C(=O)c2c[nH]c3ncc(-c4ccc(Cl)cc4)cc23)c1F [Vemurafenib] + Nc1nc2[nH]cc(CCc3ccc(C(=O)N[C@@H](CCC(=O)O)C(=O)O)cc3)c2c(=O)[nH]1 [Pemetrexed] (partner 0.2 µM)
Procedure, shortened: as §1

[3] = compound: COc1cccc2cc(-c3nc([C@H]4CC[C@H](C(=O)O)CC4)n4ncnc(N)c34)[nH]c12 [OSI-027] + CS(=O)(=O)CCNCc1ccc(-c2ccc3ncnc(Nc4ccc(OCc5cccc(F)c5)c(Cl)c4)c3c2)o1 [Lapatinib] (partner 2 µM)
Procedure, shortened: as §1

[4] = compound: Cc1nc(NC(=O)N2CCC[C@H]2C(N)=O)sc1-c1ccnc(C(C)(C)C(F)(F)F)c1 [Alpelisib] + Nc1nc2[nH]cc(CCc3ccc(C(=O)N[C@@H](CCC(=O)O)C(=O)O)cc3)c2c(=O)[nH]1 [Pemetrexed] (partner 0.2 µM)
Procedure, shortened: as §1

Cell Line	relative viability ([1]; first compound 0.03162 µM)	relative viability ([1]; first compound 0.1 µM)	relative viability ([1]; first compound 0.3162 µM)	relative viability ([1]; first compound 1 µM)	relative viability ([2]; first compound 0.03162 µM)	relative viability ([2]; first compound 0.1 µM)	relative viability ([2]; first compound 0.3162 µM)	relative viability ([2]; first compound 1 µM)	relative viability ([3]; first compound 0.01 µM)	relative viability ([3]; first compound 0.03162 µM)	relative viability ([3]; first compound 0.1 µM)	relative viability ([3]; first compound 0.3162 µM)	relative viability ([3]; first compound 1 µM)	relative viability ([4]; first compound 0.04 µM)	relative viability ([4]; first compound 0.1265 µM)	relative viability ([4]; first compound 0.4 µM)	relative viability ([4]; first compound 1.265 µM)	relative viability ([4]; first compound 4 µM)
NCI-H2087	0.204	0.14	0.292	0.256	0.646	0.63	0.544	0.678	1.11	1.06	0.873	0.951	0.769	0.634	0.625	0.679	0.65	0.606
NCI-H2126	0.513	0.535	0.564	0.543	0.627	0.662	0.684	0.777	0.771	0.814	0.728	0.563	0.529	0.686	0.752	0.674	0.584	0.509
NCI-H2170	0.888		0.846	0.89	0.272		0.265	0.289	0.268	0.283	0.257	0.27	0.254	0.277	0.23	0.281	0.29	0.265
NCI-H2228	0.357	0.524	0.668	0.439	0.315	0.321	0.391	0.323	1.05	1.21	0.958		0.539	0.35	0.228	0.39	0.272	0.319
NCI-H2347	0.266	0.215	0.263	0.251	0.413	0.441	0.357	0.412	0.983	0.921	0.885	0.806	0.516	0.459	0.418	0.442	0.425	0.405
NCI-H2405	0.622	0.473		0.608	1.02	0.977		1.17	1.03	0.996	0.798	0.852	0.539	1.08	0.975	1.02	0.814	0.571
NCI-H3122	0.219	0.271	0.243	0.304	0.206	0.188	0.214	0.203	1.09	1.1	1.14	1.05	0.808	0.208	0.208	0.204	0.197	0.173
PC-3 [JPC-3]			0.649	0.802			0.92	1.25	0.452	0.454	0.412	0.327	0.298	1.23	0.559	1.12	0.969	0.801
PC-14	0.735		0.862	0.803	0.147		0.126	0.134	0.3	0.306	0.293	0.255	0.179	0.157	0.145	0.134	0.137	0.138
RERF-LC-KJ	0.826	0.921	0.872	0.783	0.501	0.486	0.441	0.48	0.778	0.843	0.78	0.589	0.376	0.504	0.477	0.456	0.406	0.464
SK-LU-1	0.468	0.515	0.459	0.432	0.928	0.891	0.861	0.974	0.888	0.817	0.656	0.519	0.29	1.04	0.987	0.938	0.909	0.955
SK-MES-1	0.569		0.589	0.763	0.891		0.858	0.92	0.481	0.435	0.371	0.316	0.253	0.954	0.955	1.07	0.868	0.689
SW 1573	0.556	0.612	0.679	0.49	0.872	0.777	0.798	0.832	0.941	1.14	1.05	0.989	0.636	0.837	0.871	0.812	0.741	0.711
